{
  "source": "patent US7306804B2",
  "about": "(priority 1998, dated 2007)",
  "key": {"[1]": {"tested_on": "PBMCs", "conditions": "monkey, in vivo; cited from earlier work"}, "[2]": {"tested_on": "HIV envelope protein gp160", "conditions": "cited from earlier work; for T-cell proliferation responses: two F1 hybrid mouse strains (B6C3 F1 and A.SW×Balb/c F1)"}, "[3]": {"tested_on": "peptide-pulsed autologous EBV-transformed B cells (B-LCL)", "assay_type": "cell-based, human"}, "[4]": {"tested_on": "anti-peptide antibodies in serum", "assay_type": "binding, chimpanzee", "set-up": "key: +, Positive (Titer > 1:100); −, Negative (Titer < 1:100)"}, "[5]": {"tested_on": "PBMCs from control and HIV-1 infected chimpanzees", "assay_type": "cell-based, chimpanzee"}, "[6]": {"tested_on": "PBMCs from normal and HIV-positive individuals", "assay_type": "cell-based, human"}, "[7]": {"tested_on": "anti-peptide antibodies in serum", "assay_type": "binding, human", "set-up": "key to Anti-peptide antibody response: +, Positive (titer above control); −, Negative (titer below control)"}},
  "note": "Entries after “also recorded” stand apart in the source; their conditions may differ. Read-outs that look alike come from different tables or passages of the source.",
  "data": [
    {"sequence": "FLGFLGAAGSTMGAASLTLTVQARQ [Peptide 63]", "values": [
      {"measurement": "proliferative response of PBMCs", "setting": "[1]", "result": "good response"},
      {"measurement": "T-cell proliferative response to immunizing peptide and HIV Env protein gp160", "setting": "[2]; immunized mice", "result": "induced a T-cell response against both the immunizing peptide and the HIV Env protein; also recorded: induced proliferative responses to both the immunizing peptide"},
      {"measurement": "antibodies recognizing recombinant gp160", "setting": "[2]; immunized mice", "result": "did not produce antibodies that could recognize recombinant gp160"},
      {"measurement": "T-cell proliferation responses", "setting": "[2]", "result": "relatively good T-cell proliferation responses"},
      {"measurement": "% Specific lysis at various E:T ratios 12.5:1", "setting": "[3]", "result": 0, "unit": "%"},
      {"measurement": "% Specific lysis at various E:T ratios 25:1", "setting": "[3]", "result": 7.9, "unit": "%"},
      {"measurement": "% Specific lysis at various E:T ratios 50:1", "setting": "[3]", "result": 8.8, "unit": "%"},
      {"measurement": "% Specific lysis at various E:T ratios 100:1", "setting": "[3]", "result": 17.6, "unit": "%"},
      {"measurement": "CTL activity against peptide-pulsed autologous B-LCLs", "setting": "[3]", "result": "significant CTL activity"},
      {"measurement": "specific lysis of peptide-pulsed target cells", "setting": "[3]", "result": "also observed"}
    ]},
    {"sequence": "FLGFLGAAGSTMGAASLTLTVQARQ [Peptide 121]", "values": [
      {"measurement": "Anti-peptide antibody response", "setting": "[4]", "result": "−"},
      {"measurement": "Anti-peptide antibody response", "setting": "[4]; chimpanzee 40, control normal", "result": "−"},
      {"measurement": "Anti-peptide antibody response", "setting": "[4]; chimpanzee 73, control normal", "result": "−"},
      {"measurement": "T-cell proliferative response", "setting": "[5]; chimpanzee 40, control normal", "result": "− (−, Negative (SI < 2.0))"},
      {"measurement": "T-cell proliferative response", "setting": "[5]; chimpanzee 62, HIV-infected", "result": "+ (+, Positive (Stimulation Index [SI] > 2.0))"},
      {"measurement": "T-cell proliferative response", "setting": "[5]; chimpanzee 69, HIV-infected", "result": "+ (+, Positive (Stimulation Index [SI] > 2.0))"},
      {"measurement": "T-cell proliferative response", "setting": "[5]; chimpanzee 73, control normal", "result": "− (−, Negative (SI < 2.0))"},
      {"measurement": "T-cell proliferative response", "setting": "[5]; chimpanzee 80, HIV-infected", "result": "+ (+, Positive (Stimulation Index [SI] > 2.0))"},
      {"measurement": "T-cell proliferative response", "setting": "[5]; chimpanzee 99, HIV-infected", "result": "− (−, Negative (SI < 2.0))"},
      {"measurement": "T-cell proliferative response", "setting": "[5]; chimpanzee 100, HIV-infected", "result": "+ (+, Positive (Stimulation Index [SI] > 2.0))"},
      {"measurement": "T-cell proliferative response", "setting": "[5]; chimpanzee 139, HIV-infected", "result": "− (−, Negative (SI < 2.0))"},
      {"measurement": "T-cell proliferative response", "setting": "[5]; chimpanzee 175, HIV-infected", "result": "+ (+, Positive (Stimulation Index [SI] > 2.0))"},
      {"measurement": "T-cell proliferative response", "setting": "[5]; chimpanzee 247, HIV-infected", "result": "− (−, Negative (SI < 2.0))"},
      {"measurement": "T-cell proliferative response", "setting": "[5]; chimpanzee 310, HIV-infected", "result": "− (−, Negative (SI < 2.0))"},
      {"measurement": "number of HIV-infected chimpanzees with positive proliferative responses (SI>2.0)", "setting": "[5]; nine HIV-infected chimpanzees tested", "result": "five"},
      {"measurement": "number of HIV+ individuals with positive proliferative responses", "setting": "[6]; 17 HIV+ individuals tested", "result": "five"},
      {"measurement": "T-cell proliferative response", "setting": "[6]; HIV-positive patient MSf", "result": "− (−, Negative (SI < 2.0))"},
      {"measurement": "T-cell proliferative response", "setting": "[6]; HIV-positive patient MSm", "result": "− (−, Negative (SI < 2.0))"},
      {"measurement": "T-cell proliferative response", "setting": "[6]; HIV-positive patient eight", "result": "− (−, Negative (SI < 2.0))"},
      {"measurement": "T-cell proliferative response", "setting": "[6]; HIV-positive patient eleven", "result": "− (−, Negative (SI < 2.0))"},
      {"measurement": "T-cell proliferative response", "setting": "[6]; HIV-positive patient fifteen", "result": "+ (+, Positive (Stimulation Index [SI] > 2.0))"},
      {"measurement": "T-cell proliferative response", "setting": "[6]; HIV-positive patient five", "result": "− (−, Negative (SI < 2.0))"},
      {"measurement": "T-cell proliferative response", "setting": "[6]; HIV-positive patient four", "result": "− (−, Negative (SI < 2.0))"},
      {"measurement": "T-cell proliferative response", "setting": "[6]; HIV-positive patient fourteen", "result": "+ (+, Positive (Stimulation Index [SI] > 2.0))"},
      {"measurement": "T-cell proliferative response", "setting": "[6]; HIV-positive patient nine", "result": "− (−, Negative (SI < 2.0))"},
      {"measurement": "T-cell proliferative response", "setting": "[6]; HIV-positive patient one", "result": "− (−, Negative (SI < 2.0))"},
      {"measurement": "T-cell proliferative response", "setting": "[6]; HIV-positive patient seven", "result": "− (−, Negative (SI < 2.0))"},
      {"measurement": "T-cell proliferative response", "setting": "[6]; HIV-positive patient six", "result": "+ (+, Positive (Stimulation Index [SI] > 2.0))"},
      {"measurement": "T-cell proliferative response", "setting": "[6]; HIV-positive patient ten", "result": "+ (+, Positive (Stimulation Index [SI] > 2.0))"},
      {"measurement": "T-cell proliferative response", "setting": "[6]; HIV-positive patient thirteen", "result": "− (−, Negative (SI < 2.0))"},
      {"measurement": "T-cell proliferative response", "setting": "[6]; HIV-positive patient three", "result": "+ (+, Positive (Stimulation Index [SI] > 2.0))"},
      {"measurement": "T-cell proliferative response", "setting": "[6]; HIV-positive patient twelve", "result": "− (−, Negative (SI < 2.0))"},
      {"measurement": "T-cell proliferative response", "setting": "[6]; HIV-positive patient two", "result": "− (−, Negative (SI < 2.0))"},
      {"measurement": "T-cell proliferative response", "setting": "[6]; Normal-1 (HIV-seronegative)", "result": "− (−, Negative (SI < 2.0))"},
      {"measurement": "T-cell proliferative response", "setting": "[6]; Normal-2 (HIV-seronegative)", "result": "− (−, Negative (SI < 2.0))"},
      {"measurement": "number of HIV+ individuals with positive antibody titers (<1:1280)", "setting": "[7]", "result": "one"},
      {"measurement": "Anti-peptide antibody response", "setting": "[7]; HIV-positive patient MSf", "result": "−"},
      {"measurement": "Anti-peptide antibody response", "setting": "[7]; HIV-positive patient MSm", "result": "−"},
      {"measurement": "Anti-peptide antibody response", "setting": "[7]; HIV-positive patient eight", "result": "−"},
      {"measurement": "Anti-peptide antibody response", "setting": "[7]; HIV-positive patient eleven", "result": "−"},
      {"measurement": "Anti-peptide antibody response", "setting": "[7]; HIV-positive patient fifteen", "result": "−"},
      {"measurement": "Anti-peptide antibody response", "setting": "[7]; HIV-positive patient five", "result": "−"},
      {"measurement": "Anti-peptide antibody response", "setting": "[7]; HIV-positive patient four", "result": "−"},
      {"measurement": "Anti-peptide antibody response", "setting": "[7]; HIV-positive patient fourteen", "result": "−"},
      {"measurement": "Anti-peptide antibody response", "setting": "[7]; HIV-positive patient nine", "result": "+"},
      {"measurement": "Anti-peptide antibody response", "setting": "[7]; HIV-positive patient one", "result": "−"},
      {"measurement": "Anti-peptide antibody response", "setting": "[7]; HIV-positive patient seven", "result": "−"},
      {"measurement": "Anti-peptide antibody response", "setting": "[7]; HIV-positive patient six", "result": "−"},
      {"measurement": "Anti-peptide antibody response", "setting": "[7]; HIV-positive patient ten", "result": "−"},
      {"measurement": "Anti-peptide antibody response", "setting": "[7]; HIV-positive patient thirteen", "result": "−"},
      {"measurement": "Anti-peptide antibody response", "setting": "[7]; HIV-positive patient three", "result": "−"},
      {"measurement": "Anti-peptide antibody response", "setting": "[7]; HIV-positive patient twelve", "result": "−"},
      {"measurement": "Anti-peptide antibody response", "setting": "[7]; HIV-positive patient two", "result": "−"},
      {"measurement": "Anti-peptide antibody response", "setting": "[7]; Normal-1 (HIV-seronegative)", "result": "−"},
      {"measurement": "Anti-peptide antibody response", "setting": "[7]; Normal-2 (HIV-seronegative)", "result": "−"}
    ]},
    {"sequence": "GTGPCTNVSTVQC [Peptide 116]", "values": [
      {"measurement": "proliferative response of PBMCs", "setting": "[1]", "result": "weak responses"},
      {"measurement": "T-cell proliferation responses", "setting": "[2]", "result": "relatively good T-cell proliferation responses"}
    ]}
  ]
}
